Results from the NIST ThermoML archive (doi:10.1021/je400463n).

Test: mn = molality of the nth substance listed, in mol/kg
Conditions: 100 kPa, Liquid, Pycnometric method

CCCCCCCCCCCC[N+](C)(CCO)CCO.[Br-] [N,N-bis(2-hydroxyethyl)-N-methyldodecan-1-aminium bromide] + O
mass density [kg/m3]
Conditions | 293.15 K | 298.15 K | 303.15 K | 308.15 K | 313.15 K | 318.15 K
m1 = 0.00497 | 998.465 | 997.294 | 995.89 | 994.266 | 992.443 | 990.43
m1 = 0.00607 | 998.521 | 997.349 | 995.942 | 994.317 | 992.492 | 990.478
m1 = 0.00698 | 998.568 | 997.394 | 995.986 | 994.359 | 992.533 | 990.518
m1 = 0.00805 | 998.622 | 997.446 | 996.036 | 994.408 | 992.58 | 990.564
m1 = 0.00909 | 998.675 | 997.498 | 996.086 | 994.456 | 992.626 | 990.609
m1 = 0.01002 | 998.722 | 997.544 | 996.13 | 994.499 | 992.667 | 990.649
m1 = 0.01109 | 998.774 | 997.597 | 996.18 | 994.548 | 992.714 | 990.695
m1 = 0.01202 | 998.818 | 997.641 | 996.222 | 994.59 | 992.755 | 990.735
m1 = 0.01306 | 998.867 | 997.686 | 996.268 | 994.637 | 992.801 | 990.78
m1 = 0.01414 | 998.915 | 997.734 | 996.315 | 994.681 | 992.847 | 990.825
m1 = 0.01505 | 998.953 | 997.771 | 996.353 | 994.719 | 992.884 | 990.862
m1 = 0.01609 | 998.993 | 997.811 | 996.394 | 994.756 | 992.923 | 990.9
m1 = 0.01815 | 999.08 | 997.897 | 996.476 | 994.837 | 993.001 | 990.98
m1 = 0.02008 | 999.16 | 997.976 | 996.554 | 994.913 | 993.076 | 991.051
m1 = 0.02518 | 999.367 | 998.178 | 996.752 | 995.11 | 993.267 | 991.242
m1 = 0.03023 | 999.571 | 998.38 | 996.95 | 995.305 | 993.46 | 991.431
m1 = 0.03525 | 999.778 | 998.58 | 997.146 | 995.497 | 993.649 | 991.62
m1 = 0.04028 | 999.983 | 998.782 | 997.344 | 995.692 | 993.84 | 991.807
m1 = 0.04512 | 1000.19 | 998.981 | 997.539 | 995.884 | 994.027 | 991.991
m1 = 0.05025 | 1000.4 | 999.187 | 997.74 | 996.082 | 994.223 | 992.184

CCCCCCCCCCCC[N+](C)(C)CCO.[Br-] [dodecyl(2-hydroxyethyl)dimethylammonium bromide] + O
mass density [kg/m3]
Conditions | 293.15 K | 298.15 K | 303.15 K | 308.15 K | 313.15 K | 318.15 K
m1 = 0.00798 | 998.5 | 997.328 | 995.92 | 994.291 | 992.462 | 990.446
m1 = 0.009 | 998.537 | 997.364 | 995.954 | 994.324 | 992.494 | 990.476
m1 = 0.01003 | 998.574 | 997.4 | 995.989 | 994.356 | 992.525 | 990.506
m1 = 0.01099 | 998.61 | 997.434 | 996.02 | 994.387 | 992.554 | 990.534
m1 = 0.01195 | 998.646 | 997.468 | 996.053 | 994.418 | 992.584 | 990.562
m1 = 0.013 | 998.684 | 997.503 | 996.087 | 994.451 | 992.616 | 990.593
m1 = 0.01395 | 998.716 | 997.536 | 996.117 | 994.481 | 992.644 | 990.621
m1 = 0.01498 | 998.747 | 997.566 | 996.147 | 994.511 | 992.676 | 990.65
m1 = 0.01595 | 998.774 | 997.591 | 996.174 | 994.537 | 992.701 | 990.679
m1 = 0.01793 | 998.831 | 997.647 | 996.226 | 994.588 | 992.75 | 990.727
m1 = 0.01991 | 998.886 | 997.7 | 996.278 | 994.637 | 992.8 | 990.776
m1 = 0.02489 | 999.025 | 997.835 | 996.408 | 994.766 | 992.92 | 990.893
m1 = 0.02994 | 999.159 | 997.963 | 996.535 | 994.888 | 993.043 | 991.013
m1 = 0.03493 | 999.299 | 998.101 | 996.667 | 995.018 | 993.17 | 991.136
m1 = 0.0399 | 999.439 | 998.235 | 996.795 | 995.142 | 993.291 | 991.254
m1 = 0.04493 | 999.582 | 998.372 | 996.93 | 995.274 | 993.419 | 991.378
m1 = 0.04982 | 999.714 | 998.5 | 997.055 | 995.395 | 993.537 | 991.49
m1 = 0.05488 | 999.856 | 998.637 | 997.186 | 995.52 | 993.66 | 991.613
